Data on one molecule can be found in patent US20030232340A1 (priority 2002, published 2003).

The target of this experiment is T1, Concanavalin A (Canavalia ensiformis, UniProt P02866).
T1 construct: purchased Sigma C-5275
The experiment can be described thus: Homogeneous cubic phase dispersion assay: displacement of biotinylated mannotriose-avidin/HRP, Dextran Blue detection. Conditions: 500 microliters of saturated solution added to 3.0 ml. It is filed as binding. As to the method: Experimental Results—A cubic phase was first prepared by mixing 0.752 grams of Pluronic P123 (an insoluble surfactant), 0.705 grams of linalool, and 0.703 grams of water. An amount of 1.005 grams of this cubic phase was put in a glass flask together with 0.054 grams of the rhamnolipid surfactant JBR-99 (Jeneil Biosurfactant, Inc.) and 35 ml of pH 4.5 acetate buffer containing 4 mM MnCl2 and 4 mM CaCl2. The flask was then sonicated to disperse the cubic phase. Following this, the dispersion was microfluidized in a model 110S Microfluidizer (Microfluidics, Inc.) to a particle size that was fine enough where the absorbance measured on an Ultrospec 3000 UV-Vis spectrometer, at a wavelength of 620 nm, was about 0.2 absorbance units.
The following reagents were then added to 2 ml of the cubic phase dispersion: […]
After the addition of the Dextran Blue-based Detection System, absorbance readings at 620 nm were monitored continuously. After the readings stabilized at 0.40 absorbance units, 500 microliters of Displacement Solution were added. […]
Upon addition of this alpha methylmannoside—the analyte—the absorbance dropped from 0.40 to 0.26 absorbance units. […] The majority of the decrease in absorbance was due to the enzymatic action of displaced HRP on the Dextran Blue.

Molecules are shown by their SMILES.

As to `COC1O[C@H](CO)[C@@H](O)[C@H](O)[C@@H]1O` (stereo partly drawn) [alpha methylmannoside], the “decrease in absorbance at 620 nm” value (14% expected from dilution alone) amounted to 35%. Further, for the setting “reading before addition 0.40”, the “absorbance at 620 nm after addition of analyte” value is 0.26 absorbance units.
